# Test results published in US7687546B2, “Quaternary ammonium compound, process for producing the same, therapeutic agent for cerebrovascular disorder, and therapeutic agent for heart disease” (Activus Pharma Co., Ltd., priority 2004, dated 2010).
# Key:
# [1] = system: ouabain-induced arrhythmia model; experiment: Ouabain-induced arrhythmia model in guinea pigs; assay type: in vivo, guinea pigs (Hartley strain); conditions: dose 3 mg/kg i.v. immediately before ouabain infusion 3 μg/0.1 ml/min
# [2] = system: model of myocardial ischemia-reperfusion injury; experiment: Model of myocardial ischemia-reperfusion injury in rats; assay type: in vivo; conditions: 3 mg/kg i.v. 5 minutes before 5 minutes coronary ligation, 8 rats per group; for Incidence of Ventricular Fibrillation (%) / Incidence of Ventricular Tachycardia (%): monitored 5 minutes after reperfusion; for Mortality Rate (%): then reperfusion
# [3] = system: middle cerebral artery occlusion and reperfusion model; experiment: Cerebral infarction model: middle cerebral artery occlusion and reperfusion (infarct area, neurological symptoms, motor function); assay type: in vivo, rats (Crj: Wistar strain); parameters: Improvement of neurological symptoms* (total score): scale not given here; conditions: rats, average of 10 animals; for Improvement of neurological symptoms* (total score) / Improvement of motor function (time stayed on rotor rod: seconds): single i.v. dose 3 mg/kg; for Improvement of neurological symptoms* (total score): 24 hours after occlusion, total score per Table 4, smaller = greater effect; for Improvement of motor function (time stayed on rotor rod: seconds): rotor rod 14 rotations per minute, maximum 1 minute; for Cerebral infarction reduction rate (%): single intravenous dose 3 mg/kg immediately before reperfusion, vs physiological saline group, bigger = greater effect
# Description: In this example, a cerebral infarction model was prepared using rats in which reperfusion injury was induced by ischemia and then reperfusion of the middle cerebral artery using the obturator method. The efficacy of compounds of the present invention following single-dose intravenous administration at dose of 3 mg/kg was evaluated in terms of infarct area, neurological symptoms and motor function.
# In addition, Edaravone (trade name, Mitsubishi Pharma Corporation) was used as a reference compound. The compounds of the present invention were stored in a refrigerator under protection from light, while Edaravone (trade name) was stored at room temperature under protection from light.
# Compounds of present invention: 2 mL of physiological saline was added directly to tube containing 3 mg aliquots of a compound of the present invention to dissolve and prepare solutions having a concentration of 3 mg/2 mL. These samples were prepared at the time of use.
# Edaravone: Since Edaravone is an injectable solution having a concentration of 30 mg/20 mL, the required amounts were divided up and used.
# Rats: Crj: Wistar strain, males, age 7 weeks (Charles River Laboratories Japan, Inc.)
# The test compounds were administered in a single dose into the tail vein using a 1 mL syringe and 27 G injection needle immediately before the reperfusion.
# The rats were anesthetized by intraperitoneal administration of sodium pentobarbital at dose of 40 mg/kg (Nembutal (trade name), Dainippon Pharmaceutical Co., Ltd.), and a middle cerebral artery occlusion and reperfusion model was prepared in accordance with the method of Koizumi et al. (Non-Patent Document 2). Namely, the animals were warmed to 37° C. and held in the dorsal position while breathing spontaneously. A midline cervical incision was made, and then the right external carotid artery and right internal carotid artery were separated without damaging the vagus nerve. The right common carotid artery and right external carotid artery were ligated, and a suture was attached to the origin of the internal carotid artery in preparation for ligation and maintenance of occlusion following insertion of an obturator into the internal carotid artery. Moreover, a small incision was made in the right common carotid artery, an obturator provided with an approximately 17 mm silicon-coated suture was inserted into the internal carotid artery, and the internal carotid artery was ligated. Two hours after ligation, the obturator was removed under unanesthesia to reperfuse. Furthermore, flexion of the contralateral forelimb was confirmed 30 minutes after occlusion of the middle cerebral artery.
# The following neurological symptoms were evaluated 24 hours after occlusion of the middle cerebral artery according to the evaluation method of Petullo et al. (Non-Patent Document 3). Neurological symptoms consisted of flexion of the forelimbs, torso twisting, resistance when pushing on the back of the right or left shoulder (Lateral push), circling, return of the hindlimb to the floor when lifted from the floor (Hindlimb placement), behavior when the head is faced downward on an angle (Inverted angle board) and a locomotor activity test.
# Flexion of the forelimbs: flexion of the forelimbs was observed when the animals were lifted up by the tail.
# Torso twisting: Torso twisting was observed when the animals were lifted up by the tail.
# Lateral push: Resistance was observed when pushing on the back of the right or left shoulder.
# Hindlimb placement: The animals were observed as to whether or not the hindlimb immediately returns to the floor after being lifted from the floor when placed on a horizontal floor.
# locomotor activity: locomotor activity was observed when the animals were placed in a polycarbonate cage.
# The aforementioned tests were scored based on the criteria described in the following documents, followed by calculation of total scores (see Table 4 “Neurological Symptom Evaluation Criteria and Scores”). […]
# [4] = system: model of myocardial ischemia reperfusion injury; experiment: Model of myocardial ischemia-reperfusion injury in dogs; assay type: in vivo; conditions: 3 mg/kg into the femoral vein 10 minutes before 20 minutes coronary occlusion, then reperfusion
# Description: In order to confirm the efficacy of compounds of the present invention on myocardial infarction and arrhythmia caused by myocardial infarction, a pharmacological study was conducted using a model of myocardial ischemia reperfusion injury in dogs for the compounds used in Example 1.
# Dogs having body weights of approximately 10 kg were anesthetized with pentobarbital (trade name) (30 mg/ml/kg) followed by shaving the surgical site after starting artificial respiration. The femoral vein and femoral artery were separated followed by cannulation. The femoral vein was used as the administration route for the test substances, while the femoral artery was used to measure blood pressure.
# Next, after opening the left chest, making an incision in the pericardium and exposing the left ventricle, the left coronary artery was separated. A silk suture was passed through the coronary artery to occlude, followed by the attachment of an electromagnetic flow meter probe for measuring blood flow.
# In addition, a pair of ultrasound crystal probes was fixed in position to measure changes in ventricular wall length as a indicator of myocardial contractile force, and indwelling needle was installed for measuring left intraventricular pressure. Compounds of the present invention were administered into the femoral vein at 3 mg/kg (15% physiological saline solution) followed 10 minutes later by occluding the coronary artery for 20 minutes, and subsequently reperfusing the coronary artery. Myocardial contraction following ischemia-reperfusion was compared for each group based on a value of 100 for myocardial contraction prior to ischemic reperfusion. In addition, comparisons were also made with a solvent control group administered only physiological saline.
# guinea pigs = experiment: Study of arrhythmia-inducing action in guinea pigs (without ouabain); conditions: up to 1 hour after administration, no ouabain
SMILES,Ouabain (μg/kg) administered until Cardiac arrest [1] [µg/kg],Ouabain (μg/kg) administered until appearance of Arrhythmia [1] [µg/kg],Incidence of Ventricular Fibrillation (%) [2] [%],Incidence of Ventricular Tachycardia (%) [2] [%],Mortality Rate (%) [2] [%],Improvement of neurological symptoms* (total score) [3],Improvement of motor function (time stayed on rotor rod: seconds) [3] [s],Cerebral infarction reduction rate (%) [3] [%],Myocardial Contraction (%) (Based on a value of 100% for prior to ischemia-reperfusion) [4],Occurrence of Arrhythmia (guinea pigs; dose 3 mg/kg),Occurrence of cardiac arrest (guinea pigs; dose 3 mg/kg),Occurrence of Arrhythmia (guinea pigs; dose 10 mg/kg),Occurrence of cardiac arrest (guinea pigs; dose 10 mg/kg)
"C[N+](C)(C)CCOc1ccc(C(=O)[O-])cc1 [Compound 3, 4-(2-trimethylammonio-ethoxy)-benzoate]",235,169,12.5,62.5,0,6.20,50.1,48.7,81,No,No,No,No
"C[N+](C)(C)CCOc1cc(C(=O)O)ccc1O.[Cl-] [Compound 27, [2-(5-carboxy-2-hydroxy-phenoxy)-ethyl]-trimethylammonium Chloride]",258,180,0,50.0,0,6.75,47.5,53.7,85,No,No,No,No
